Reference: paper PMC8694022, “Molecular Docking-Based Screening for Novel Inhibitors of the Human Immunodeficiency Virus Type 1 Protease that Effectively Reduce the Viral Replication in Human Cells” (Journal of AIDS & clinical research, 2021)
pIC50: −log10 of the molar value.

Experiments:
HIV-1AD [1] = test: Anti-viral activity alone or combined with 25 µM RTV, relative to 25 µM RTV, HIV-1AD; assay type: cell-based
Method: (§1) Anti-viral activity was evaluated ex vivo by adding the highest non-toxic concentration of compound or 25uM RTV (Sigma) solubilized in DMSO on the day of infection by PI-sensitive (HIV-1AD) or multi (RTV and IDV) PI-resistant (HIV-1AD02) HIV-1 variants at 25 or 45 TCID50 per ml for PBMCs or TZM-bl cells, respectively. Replication was determined on post-infection day 7 in PBMC by measuring supernatant p24 antigen levels (Perkin-Elmer), or day 4 in TZM-bl cells by measuring luciferase activity using the luciferase assay system (Promega, Madison, WI) and the microplate luminometer Monolight 3096 (BD Biosciences, San Jose, CA). Inhibitory concentration (IC)50 was calculated based on anti-viral activity in TZM-bl cells with a nonlinear regression analysis (GraphPad Prism 6 Software). Reduction of viral replication by more than 50% was considered successful anti-viral activity. Combinatorial effect of drug with RTV was tested at IC50, and higher or lower concentrations than IC50.
(§2) Combinatorial effect of drug was tested combining 25 μM RTV and higher or lower concentrations than IC50 of lead compounds. Combinations of compounds 18, 22, 27, 32 or 35 with 25 μM RTV were non-toxic in TZM-bl cells. Combination with RTV increased antiviral activity of all compounds against both PI-sensitive and PI-resistant HIV-1 variants (Figure 2).
(§3) Table S2. Fold change of compounds (18, 22, 27, 32 or 35) alone or in combination with 25 µM RTV compared to 25 µM
(§4) RTV. P values are reported in parenthesis with Bonferroni correction with significance p<0.0055; fold change >1 indicates […]
(§5) are highlighted in yellow; (-) not performed. (1) Anti-viral activity against HIV-1; (2) Compounds identification number.
(§6) Fold change of compounds compared to 25 µM RTV as reference […]

HIV-1AD02 [2] = test: Anti-viral activity alone or combined with 25 µM RTV, relative to 25 µM RTV, HIV-1AD02; assay type: cell-based
Method: as §1, §2, §3, §4, §5, §6

HIV-1AD [3] = test: Anti-viral activity in TZM-bl cells, PI-sensitive HIV-1AD (luciferase); assay type: cell-based
Method: as §1

HIV-1 PR subtype B = biological target: T1, HIV-1 PR subtype B (Human immunodeficiency virus type 1 group M subtype B, UniProt P04585); test: In vitro PR inhibition assay, subtype B; assay type: biochemical; set-up: key: [+] or [−] indicating PR inhibition or no inhibition, respectively; [+] or [−] indicating PR inhibition or no inhibition, respectively; conditions: compound at 80 μM, 37 °C
T1 construct: HIV type 1 (HIV-1) PR is a homodimeric enzyme of 99 amino acids; made in house
Method: (§7) The compounds were obtained from the NCI/DTP and solubilized in DMSO (Sigma) for use in HIV-1 PR inhibition assays. Cloning, expression, and purification procedures of HIV-1 PRs obtained from […] samples have been previously described elsewhere. For detailed information of mutations harbored in the multi PI-resistant HIV-1PR as compared to the PI-sensitive PR, full amino acid sequences is given in supplementary materials (Figure S1). HIV-1 PRs subtype variants were assayed kinetically at 80 μM for inhibitory activity at 37 °C using selected compounds as previously described.
(§8) We explored the hypothesis that compounds selected in silico for binding to the hinge region of PR are effective as inhibitors of HIV-1 replication, including multi-PI resistant viruses, in human cells. Our of 139,739 compounds, the top 40 highest-scoring compounds targeting the structural pockets in the hinge of the PR (Figure S1) were obtained from the NCI/DTP for use in HIV PR inhibition assays. Compounds were initially tested in vitro at 80 μM to screen for inhibitory activity against PR subtypes A, B or C. Compounds inhibiting at least one subtype of the PR were considered as candidate compounds for further experiments.

PBMCs = test: Cell viability assay (CellTiter 96 AQueous) in PBMCs; assay type: cell-based, human; conditions: 200 μM, day 7
Method: (§9) Viability in presence of compounds was measured at day 4 or 7, TZM-bl cells or PBMCs, using CellTiter 96 AQueous one solution cell proliferation assay (Promega) following manufacturer instructions. Toxicity of compounds was defined as a concentration that produced more than 10% decline in viability of TZM-bl cells or PBMCs were viable at days 4 or 7 of exposure, respectively, compared with DMSO-treated controls.

HIV-1 PR subtype C = biological target: T2, HIV-1 PR subtype C (Human immunodeficiency virus type 1 group M subtype C, UniProt Q75002); test: In vitro PR inhibition assay, subtype C; assay type: biochemical; set-up: key: [+] or [−] indicating PR inhibition or no inhibition, respectively; [+] or [−] indicating PR inhibition or no inhibition, respectively; conditions: compound at 80 μM, 37 °C
T2 construct: HIV type 1 (HIV-1) PR is a homodimeric enzyme of 99 amino acids; made in house
Method: as §7, §8

HIV-1AD02 [4] = test: Anti-viral activity in TZM-bl cells, multi PI-resistant HIV-1AD02 (luciferase); assay type: cell-based
Method: as §1

HIV-1 PR subtype A = biological target: T3, HIV-1 PR subtype A (Human immunodeficiency virus type 1 group M subtype A, UniProt P24740); test: In vitro PR inhibition assay, subtype A; assay type: biochemical; set-up: key: [+] or [−] indicating PR inhibition or no inhibition, respectively; [+] or [−] indicating PR inhibition or no inhibition, respectively; conditions: compound at 80 μM, 37 °C
T3 construct: HIV type 1 (HIV-1) PR is a homodimeric enzyme of 99 amino acids; made in house
Method: as §7, §8

TZM-bl cells = test: Cell viability assay (CellTiter 96 AQueous) in TZM-bl cells; assay type: cell-based, human
Method: as §9

[5] = highest non-toxic concentration, day 4 luciferase

T3 sequence (P24740 482-580): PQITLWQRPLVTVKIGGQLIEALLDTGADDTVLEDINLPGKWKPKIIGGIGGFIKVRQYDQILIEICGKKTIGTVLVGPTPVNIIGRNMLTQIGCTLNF
T2 sequence (Q75002 493-591): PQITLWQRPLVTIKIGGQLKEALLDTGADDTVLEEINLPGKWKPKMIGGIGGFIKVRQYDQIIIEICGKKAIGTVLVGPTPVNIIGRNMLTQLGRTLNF

SMILES: Nc1nc(N)c(N=Nc2ccc(C(=O)O)c(O)c2)c(N)n1 [Compound 18]
- Fold change compared to 25 µM RTV (HIV-1AD [1]; compound 25 µM with 25 µM RTV): 0.54 fold
- Fold change compared to 25 µM RTV (HIV-1AD [1]; compound 50 µM with 25 µM RTV): 0.32 fold
- Fold change compared to 25 µM RTV (HIV-1AD [1]; compound 100 µM with 25 µM RTV): 0.40 fold
- Fold change compared to 25 µM RTV (HIV-1AD [1]; compound alone, 25 µM): 1.12 fold
- Fold change compared to 25 µM RTV (HIV-1AD [1]; compound alone, 50 µM): 1.13 fold
- Fold change compared to 25 µM RTV (HIV-1AD [1]; compound alone, 100 uM): 0.87 fold
- Fold change compared to 25 µM RTV (HIV-1AD02 [2]; HIV-1AD02, compound 25 µM with 25 µM RTV): 0.75 fold
- Fold change compared to 25 µM RTV (HIV-1AD02 [2]; HIV-1AD02, compound 50 µM with 25 µM RTV): 0.60 fold
- Fold change compared to 25 µM RTV (HIV-1AD02 [2]; HIV-1AD02, compound 100 µM with 25 µM RTV): 0.53 fold
- Fold change compared to 25 µM RTV (HIV-1AD02 [2]; HIV-1AD02, compound alone, 25 µM): 3.42 fold
- Fold change compared to 25 µM RTV (HIV-1AD02 [2]; HIV-1AD02, compound alone, 50 µM): 3.24 fold
- Fold change compared to 25 µM RTV (HIV-1AD02 [2]; HIV-1AD02, compound alone, 100 uM): 2.41 fold
- pIC50 (HIV-1AD [3]; PI-sensitive variant): 4.20
- reduction of replication of HIV-1AD (HIV-1AD [3]; [5]): more than 80%
- Inhibition of PR subtype B (HIV-1 PR subtype B): +
- reduction of cell viability (PBMCs): 28%
- Inhibition of PR subtype C (HIV-1 PR subtype C): +
- reduction of replication of HIV-1AD02 (HIV-1AD02 [4]; [5]): more than 80%
- pIC50 (HIV-1AD02 [4]; multi PI-resistant variant): 4.16
- Inhibition of PR subtype A (HIV-1 PR subtype A): +
- toxicity (more than 10% decline in viability) (TZM-bl cells; 200 μM, day 4): non-toxic
- toxicity of combination with 25 μM RTV (TZM-bl cells; compound combined with 25 μM RTV): non-toxic
